Measurements from patent publication US10307425B2, “Compositions and methods for treating toxoplasmosis, cryptosporidiosis and other apicomplexan protozoan related diseases” (UNIVERSITY OF WASHINGTON, priority 2015, dated 2019).

Target: TgCDPK1 (Toxoplasma gondii, UniProt Q9BJF5)
Test: biochemical

Sequence of TgCDPK1 (Q9BJF5 1-507): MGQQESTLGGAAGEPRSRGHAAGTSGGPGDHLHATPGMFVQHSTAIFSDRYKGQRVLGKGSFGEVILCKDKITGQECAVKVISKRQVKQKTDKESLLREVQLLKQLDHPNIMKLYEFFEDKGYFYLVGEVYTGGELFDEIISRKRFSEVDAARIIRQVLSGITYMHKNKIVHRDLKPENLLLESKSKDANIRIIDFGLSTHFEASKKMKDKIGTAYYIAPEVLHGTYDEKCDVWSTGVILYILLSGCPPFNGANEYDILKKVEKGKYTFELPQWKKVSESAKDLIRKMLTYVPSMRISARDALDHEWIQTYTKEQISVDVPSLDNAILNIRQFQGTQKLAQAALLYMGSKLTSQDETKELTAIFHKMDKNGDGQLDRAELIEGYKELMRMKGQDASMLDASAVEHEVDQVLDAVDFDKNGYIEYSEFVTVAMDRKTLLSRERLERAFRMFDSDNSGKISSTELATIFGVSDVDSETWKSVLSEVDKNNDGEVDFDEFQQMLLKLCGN

CCOc1ccc2cc(-c3nn(CC(=O)N4CCOCC4)c4ncnc(N)c34)ccc2c1 [Example 50, 2-(4-amino-3-(6-ethoxynaphthalen-2-yl)-1H-pyrazolo[3,4-d]pyrimidin-1-yl)-1-morpholinoethanone]
IC50: 42.9 nM

Nc1ncnc2c1c(-c1ccc3cc(OC4CC4)ccc3c1)nn2CC1(CO)COC1 [Example 65, (3-((4-amino-3-(6-cyclopropoxynaphthalen-2-yl)-1H-pyrazolo[3,4-d]pyrimidin-1-yl)methyl)oxetan-3-yl)methanol]
IC50: 2.9 nM

CC(C)(F)Cn1nc(-c2ccc3cc(OC4CC4)ccc3c2)c2c(N)ncnc21 [Example 77, 3-(6-cyclopropoxynaphthalen-2-yl)-1-(2-fluoro-2-methylpropyl)-1H-pyrazolo[3,4-d]pyrimidin-4-amine]
IC50: 6.4 nM

Nc1ncnc2c1c(-c1ccc3cc(OC4CC4)ccc3c1)nn2CC(=O)N1CCOCC1 [Example 51, 2-(4-amino-3-(6-cyclopropoxynaphthalen-2-yl)-1H-pyrazolo[3,4-d]pyrimidin-1-yl)-1-morpholinoethanone]
IC50: 15.8 nM

CN1CCC(Cn2nc(-c3ccc4cc(OCC#N)ccc4c3)c3c(N)ncnc32)CC1 [Example 73, 2-((6-(4-amino-1-((1-methylpiperidin-4-yl)methyl)-1H-pyrazolo[3,4-d]pyrimidin-3-yl)naphthalen-2-yl)oxy)acetonitrile]
IC50: 73.8 nM

CCOc1ccc2cc(-c3nn(CC4(O)CCN(C)CC4)c4ncnc(N)c34)ccc2c1 [Example 71, 4-((4-amino-3-(6-ethoxynaphthalen-2-yl)-1H-pyrazolo[3,4-d]pyrimidin-1-yl)methyl)-1-methylpiperidin-4-ol]
IC50: 59.3 nM

N#CC1(Cn2nc(-c3ccc4cc(OC(F)F)ccc4c3)c3c(N)ncnc32)CCNCC1 [Example 100, 4-((4-amino-3-(6-(difluoromethoxy)naphthalen-2-yl)-1H-pyrazolo[3,4-d]pyrimidin-1-yl)methyl)piperidine-4-carbonitrile]
IC50: 2.5 nM

CC(C)Cn1nc(-c2ccc3cc(OC4CC4)ccc3c2)c2c(N)ncnc21 [Example 9, 3-(6-cyclopropoxynaphthalen-2-yl)-1-isobutyl-1H-pyrazolo[3,4-d]pyrimidin-4-amine]
IC50: 6 nM

CC(C)(O)Cn1nc(-c2ccc3cc(OCC#N)ccc3c2)c2c(N)ncnc21 [Example 88, 2-(6-(4-amino-1-(2-hydroxy-2-methylpropyl)-1H-pyrazolo[3,4-d]pyrimidin-3-yl)naphthalen-2-yloxy)acetonitrile]
IC50: 112 nM

CCOc1ccc2cc(-c3nn(CC4(O)CN(C)C4)c4ncnc(N)c34)ccc2c1 [Example 97, 3-((4-amino-3-(6-ethoxynaphthalen-2-yl)-1H-pyrazolo[3,4-d]pyrimidin-1-yl)methyl)-1-methylazetidin-3-ol]
IC50: 2.6 nM

Nc1ncnc2c1c(-c1ccc3cc(OC(F)F)ccc3c1)nn2CC1CCNCC1 [Example 94, 3-(6-(difluoromethoxy)naphthalen-2-yl)-1-(piperidin-4-ylmethyl)-1H-pyrazolo[3,4-d]pyrimidin-4-amine]
IC50: 1.9 nM

CC(C)(CO)Cn1nc(-c2ccc3nc(OCC(F)(F)F)ccc3c2)c2c(N)ncnc21 [Example 2, 3-(4-Amino-3-(2-(2,2,2-trifluoroethoxy)quinolin-6-yl)-1H-pyrazolo[3,4-d]pyrimidin-1-yl)-2,2-dimethylpropan-1-ol]
IC50: 17.2 nM

CCOc1ccc2cc(-c3nn(CC4(C#N)CCN(C)CC4)c4ncnc(N)c34)ccc2c1 [Example 75, 4-((4-amino-3-(6-ethoxynaphthalen-2-yl)-1H-pyrazolo[3,4-d]pyrimidin-1-yl)methyl)-1-methylpiperidine-4-carbonitrile]
IC50: 18.3 nM

COC(=O)C(C)(C)Cn1nc(-c2ccc3nc(OC4CC4)ccc3c2)c2c(N)ncnc21 [Example 69, methyl 3-(4-amino-3-(2-cyclopropoxyquinolin-6-yl)-1H-pyrazolo[3,4-d]pyrimidin-1-yl)-2,2-dimethylpropanoate]
IC50: 43.2 nM

Nc1ncnc2c1c(-c1ccc3nc(OCC(F)(F)F)ccc3c1)nn2CC1CCNCC1 [Example 44, 1-(piperidin-4-ylmethyl)-3-(2-(2,2,2-trifluoroethoxy)quinolin-6-yl)-1H-pyrazolo[3,4-d]pyrimidin-4-amine]
IC50: 1.4 nM

Nc1ncnc2c1c(-c1ccc3nc(OC4CC4)ccc3c1)nn2CC1(O)CCCC1 [Example 60, 1-((4-amino-3-(2-cyclopropoxyquinolin-6-yl)-1H-pyrazolo[3,4-d]pyrimidin-1-yl)methyl)cyclopentanol]
IC50: 12.7 nM

Nc1ncnc2c1c(-c1ccc3nc(OC4CC4)ccc3c1)nn2CC1CCNCC1 [Example 39, 3-(2-cyclopropoxyquinolin-6-yl)-1-(piperidin-4-ylmethyl)-1H-pyrazolo[3,4-d]pyrimidin-4-amine]
IC50: 1 nM

CN1CCC(O)(Cn2nc(-c3ccc4cc(OC(F)F)ccc4c3)c3c(N)ncnc32)CC1 [Example 99, 4-((4-amino-3-(6-(difluoromethoxy)naphthalen-2-yl)-1H-pyrazolo[3,4-d]pyrimidin-1-yl)methyl)-1-methylpiperidin-4-ol]
IC50: 35.8 nM

Nc1ncnc2c1c(-c1ccc3cc(OC4CC4)ccc3c1)nn2CC1(O)CNC1 [Example 90, 3-((4-amino-3-(6-cyclopropoxynaphthalen-2-yl)-1H-pyrazolo[3,4-d]pyrimidin-1-yl)methyl)azetidin-3-ol]
IC50: 5.1 nM

COC(=O)C(C)(C)Cn1nc(-c2ccc3cc(OC4CC4)ccc3c2)c2c(N)ncnc21 [Example 68, methyl 3-(4-amino-3-(6-cyclopropoxynaphthalen-2-yl)-1H-pyrazolo[3,4-d]pyrimidin-1-yl)-2,2-dimethylpropanoate]
IC50: 9.7 nM

CCOc1ccc2cc(-c3nn(CC4(O)CNC4)c4ncnc(N)c34)ccc2n1 [Example 93, 3-((4-amino-3-(2-ethoxyquinolin-6-yl)-1H-pyrazolo[3,4-d]pyrimidin-1-yl)methyl)azetidin-3-ol]
IC50: 2.9 nM

CCOc1ccc2cc(-c3nn(CC(C)(C)CO)c4ncnc(N)c34)ccc2n1 [Example 37, 3-(4-amino-3-(2-ethoxyquinolin-6-yl)-1H-pyrazolo[3,4-d]pyrimidin-1-yl)-2,2-dimethylpropan-1-ol]
IC50: 1.7 nM

Nc1ncnc2c1c(-c1ccc3nc(OC4CC4)ccc3c1)nn2CC(O)(C(F)(F)F)C(F)(F)F [Example 53, 2-((4-amino-3-(2-cyclopropoxyquinolin-6-yl)-1H-pyrazolo[3,4-d]pyrimidin-1-yl)methyl)-1,1,1,3,3,3-hexafluoropropan-2-ol]
IC50: 47.3 nM

CCOc1ccc2cc(-c3nc(CC4CCNCC4)n4ccnc(N)c34)ccc2c1 [Example 114, 1-(6-ethoxynaphthalen-2-yl)-3-(piperidin-4-ylmethyl)imidazo[1,5-a]pyrazin-8-amine]
IC50: 10 nM

COCCOc1ccc2cc(-c3nn(CC4CCN(C)CC4)c4ncnc(N)c34)ccc2n1 [Example 42, 3-(2-(2-methoxyethoxy)quinolin-6-yl)-1-((1-methylpiperidin-4-yl)methyl)-1H-pyrazolo[3,4-d]pyrimidin-4-amine]
IC50: 8 nM

Nc1ncnc2c1c(-c1ccc3cc(OC4CC4)ccc3c1)nn2CC1(O)CCC1 [Example 59, 1-((4-amino-3-(6-cyclopropoxynaphthalen-2-yl)-1H-pyrazolo[3,4-d]pyrimidin-1-yl)methyl)cyclobutanol]
IC50: 8.6 nM

Nc1ncnc2c1c(-c1ccc3cc(OC4CCC4)ccc3c1)nn2CC1CCOCC1 [Example 30, 3-(6-cyclobutoxynaphthalen-2-yl)-1-((tetrahydro-2H-pyran-4-yl)methyl)-1H-pyrazolo[3,4-d]pyrimidin-4-amine]
IC50: 2.6 nM

COCc1ccc2cc(-c3nn(CC(O)(C(F)(F)F)C(F)(F)F)c4ncnc(N)c34)ccc2c1 [Example 52, 2-((4-amino-3-(6-(methoxymethyl)naphthalen-2-yl)-1H-pyrazolo[3,4-d]pyrimidin-1-yl)methyl)-1,1,1,3,3,3-hexafluoropropan-2-ol]
IC50: 84.2 nM

Nc1ncnc2c1c(-c1ccc3cc(OC4CC4)ccc3c1)nn2CC1(O)CCOCC1 [Example 63, 4-((4-amino-3-(6-cyclopropoxynaphthalen-2-yl)-1H-pyrazolo[3,4-d]pyrimidin-1-yl)methyl)-tetrahydro-2H-pyran-4-ol]
IC50: 12.8 nM

COC(C)(C)Cn1nc(-c2ccc3cc(OC4CC4)ccc3c2)c2c(N)ncnc21 [Example 66, 3-(6-cyclopropoxynaphthalen-2-yl)-1-(2-methoxy-2-methylpropyl)-1H-pyrazolo[3,4-d]pyrimidin-4-amine]
IC50: 1660 nM

CCOc1ccc2ccc(-c3nn(CC(C)C)c4ncnc(N)c34)cc2c1 [Example 47, 3-(7-ethoxynaphthalen-2-yl)-1-isobutyl-1H-pyrazolo[3,4-d]pyrimidin-4-amine]
IC50: 10.8 nM

Nc1ncnc2c1c(-c1ccc3nc(OC4CC4)ccc3c1)nn2CC1(CO)COC1 [Example 64, (3-((4-amino-3-(2-cyclopropoxyquinolin-6-yl)-1H-pyrazolo[3,4-d]pyrimidin-1-yl)methyl)oxetan-3-yl)methanol]
IC50: 3.6 nM

CCOc1ccc2cc(-c3nn(CC(C)(C)CO)c4ncnc(N)c34)ccc2c1 [Example 32, 3-(4-amino-3-(6-ethoxynaphthalen-2-yl)-1H-pyrazolo[3,4-d]pyrimidin-1-yl)-2,2-dimethylpropan-1-ol]
IC50: 1.2 nM

COC(C)(C)Cn1nc(-c2ccc3nc(OC4CC4)ccc3c2)c2c(N)ncnc21 [Example 67, 3-(2-cyclopropoxyquinolin-6-yl)-1-(2-methoxy-2-methylpropyl)-1H-pyrazolo[3,4-d]pyrimidin-4-amine]
IC50: 430 nM

COC(=O)COc1ccc2cc(-c3nn(CC4CCN(C)CC4)c4ncnc(N)c34)ccc2c1 [Example 72, methyl 2-((6-(4-amino-1-((1-methylpiperidin-4-yl)methyl)-1H-pyrazolo[3,4-d]pyrimidin-3-yl)naphthalen-2-yl)oxy)acetate]
IC50: 49.6 nM

CN1CCC(C#N)(Cn2nc(-c3ccc4cc(OC(F)F)ccc4c3)c3c(N)ncnc32)CC1 [Example 102, 4-((4-amino-3-(6-(difluoromethoxy)naphthalen-2-yl)-1H-pyrazolo[3,4-d]pyrimidin-1-yl)methyl)-1-methylpiperidine-4-carbonitrile]
IC50: 18.2 nM
